Patent publication US12077501B2, “Compounds and compositions for intracellular delivery of agents” (ModernaTX, Inc., priority 2017, dated 2024)

Columns and labels:
[1] = pKa of nanoparticle compositions; format: physicochemical
[2] = Lipid clearance: % dose remaining in liver of CD-1 mice; format: in vivo; conditions: intravenous, 0.5 mg/kg, CD-1 mouse, Table 8a
Excerpt: In contrast, hEPO expression in rats induced by administration of a nanoparticle composition including a compound according to one of formulae (I), (Ia1)-(Ia6), (Ib), (II), (IIa), (III), and (IIIa) was substantially […] than that measured for MC3. […] Tables 7c and 7d show additional protein expressions and clearance data from compositions with various compounds disclosed herein as compared to with MC3. Tables 7e, 7f and 7g show hEPO expression data in CD-1 mice at a dose of 0.5 mpk.

[3] = Encapsulation efficiency of RNA (QUANT-IT RIBOGREEN RNA assay); format: physicochemical; conditions: summary of Table 1
Protocol: For nanoparticle compositions including an RNA, a QUANT-IT™ RIBOGREEN® RNA assay (Invitrogen Corporation Carlsbad, CA) can be used to evaluate the encapsulation of an RNA by the nanoparticle composition. The samples are diluted to a concentration of approximately 5 μg/mL in a TE buffer solution (10 mM Tris-HCl, 1 mM EDTA, pH 7.5). 50 μL of the diluted samples are transferred to a polystyrene 96 well plate and either 50 μL of TE buffer or 50 μL of a 2% Triton X-100 solution is added to the wells. The plate is incubated at a temperature of 37° C. for 15 minutes. The RIBOGREEN® reagent is diluted 1:100 in TE buffer, and 100 μL of this solution is added to each well. The fluorescence intensity can be measured using a fluorescence plate reader (Wallac Victor 1420 Multilablel Counter; Perkin Elmer, Waltham, MA) at an excitation wavelength of, for example, about 480 nm and an emission wavelength of, for example, about 520 nm. The fluorescence values of the reagent blank are subtracted from that of each of the samples and the percentage of free RNA is determined by dividing the fluorescence intensity of the intact sample (without addition of Triton X-100) by the fluorescence value of the disrupted sample (caused by the addition of Triton X-100).

[4] = Particle size and polydispersity index of nanoparticle compositions (Zetasizer Nano ZS); format: physicochemical; conditions: summary of Table 1
Protocol: A Zetasizer Nano ZS (Malvem Instruments Ltd, Malvem, Worcestershire, UK) can be used to determine the particle size, the polydispersity index (PDI) and the zeta potential of the nanoparticle compositions in 1×PBS in determining particle size and 15 mM PBS in determining zeta potential.

| SMILES | pKa ([1]; Table 1b) | % Dose Remaining 6 hr [2] [%] | % Dose Remaining 24 hr [2] [%] | further results |
| --- | --- | --- | --- | --- |
| CCCCCCCCCN(CCCCCCCC(=O)OC)CCC1CCN(C(=O)CN(CCCCCCCCC)CCN(CCCCCCCCC)CCCCCCCCC)CC1 [Compound 57, Methyl 8-((2-(1-(N-(2-(dinonylamino)ethyl)-N-nonylglycyl)piperidin-4-yl)ethyl)(nonyl)amino)octanoate] | 6.73 |  |  |  |
| CCCCCCCCCN(CCCCCCCCC)CCC1CCN(C(=O)CN(CCCCCCCCC)CCN(CCCCCCCCC)CCCCCCCCC)C1 (stereo not drawn) [Compound 69, 2-((2-(Dinonylamino)ethyl)(nonyl)amino)-1-(3-(2-(dinonylamino)ethyl)pyrrolidin-1-yl)ethan-1-one] | 7.01 | 59.21 | 52.03 |  |
| CCCCCCCCCN(CCCC(=O)OCCCCC)CCCC1CCN(C(=O)CCN(CCCCCCCCC)CCN(CCCCCCCCC)CCCCCCCCC)CC1 [Compound 84, Pentyl 4-((3-(1-(3-((2-(dinonylamino)ethyl)(nonyl)amino)propanoyl)piperidin-4-yl)propyl)(nonyl)amino)butanoate] | 7.01 | 21.23 | 20.86 |  |
| CCCCCCCCCCCCN(CCCCCCCCCCCC)CCN(CCCCCCCCCCCC)CCN1CCNCC1 [Compound 37, N^1,N^1,N^2-Tridodecyl-N^2-(2-(piperazin-1-yl)ethyl)ethane-1,2-diamine] |  |  |  | encapsulation efficiency ranking amongst the compositions of Tables 1 and 1a [3]: highest |
| CCCCCCCCCN(CCCOC(=O)CC(C)CCC)CCC1CCN(C(=O)CN(CCCCCCCCC)CCN(CCCCCCCCC)CCCCCCCCC)CC1 (stereo not drawn) [Compound 133, 3-((2-(1-(N-(2-(Dinonylamino)ethyl)-N-nonylglycyl)piperidin-4-yl)ethyl)(nonyl)amino)propyl 3-methylhexanoate] |  |  | 13.02 | pKa ([1]; Table 1c): 6.58 |
| CCCCCCCCCN(CCCCCCCCC)CCN(CCCCCCCCC)CC(=O)N1CCN(C(=O)CN(CCCCCCCCC)CCCCCCC(=O)OCC)CC1 [Compound 53, Ethyl 7-((2-(4-(N-(2-(dinonylamino)ethyl)-N-nonylglycyl)piperazin-1-yl)-2-oxoethyl)(nonyl)amino)heptanoate] | 6.91 |  |  |  |
| CCCCCCCCCN(CCCC(=O)OCCCCC)CCC1CCCN(C(=O)CN(CCCCCCCCC)CCN(CCCCCCCCC)CCCCCCCCC)C1 (stereo not drawn) [Compound 80, Pentyl 4-((2-(1-(N-(2-(dinonylamino)ethyl)-N-nonylglycyl)piperidin-3-yl)ethyl)(nonyl)amino)butanoate] | 6.78 | 23.78 | 25.25 |  |
| CCCCC/C=C\C/C=C\CCCCCCCCN(CCCCCCCC/C=C\C/C=C\CCCCC)CCN(CCCCCCCC/C=C\C/C=C\CCCCC)CCN1CCNCC1 [Compound 41, N^1,N^1,N^2-Tri((9Z,12Z)-octadeca-9,12-dien-1-yl)-N^2-(2-(piperazin-1-yl)ethyl)ethane-1,2-diamine] |  |  |  | encapsulation efficiency ranking amongst the compositions of Tables 1 and 1a [3]: highest |
| CCCCCCCCCN(CCCCCCCCC)CCN(CCCCCCCCC)CC(=O)N1CCN(C(=O)CN(CCCCCCCCC)CCCCCC(=O)OCCC)CC1 [Compound 54, Propyl 6-((2-(4-(N-(2-(dinonylamino)ethyl)-N-nonylglycyl)piperazin-1-yl)-2-oxoethyl)(nonyl)amino)hexanoate] | 6.88 |  |  |  |
| CCCCCCCCCN(CCCC(=O)OCCCCC)CCC1CCN(C(=O)CN(CCCCCCCCC)CCN(CCCCCCCCC)CCCCCCCCC)C1 (stereo not drawn) [Compound 81, Pentyl 4-((2-(1-(N-(2-(dinonylamino)ethyl)-N-nonylglycyl)pyrrolidin-3-yl)ethyl)(nonyl)amino)butanoate] | 7.22 | 15.28 | 19.27 |  |
| CCCCCCCCCN(CCCC(=O)OCCCCC)CCC(=O)N1CCN(C(=O)CCN(CCCCCCCCC)CCN(CCCCCCCCC)CCCCCCCCC)CC1 [Compound 62, Pentyl 4-((3-(4-(3-((2-(dinonylamino)ethyl)(nonyl)amino)propanoyl)piperazin-1-yl)-3-oxopropyl)(nonyl)amino)butanoate] | 7.56 | 16.99 | 14.36 |  |
| CCCCCCCCCN(CCCCCCCCC)CCN(CCCCCCCCC)CCC1CCN(C(=O)CN(CCCCCCCCC)CCCCCCCCC)CC1 [Compound 50, 2-(Dinonylamino)-1-(4-(2-((2-(dinonylamino)ethyl)(nonyl)amino)ethyl)piperidin-1-yl)ethan-1-one] |  |  |  | particle size ranking amongst the compositions of Tables 1 and 1a [4]: smallest particles |
| CCCCCCCCCN(CCCCCCCCC)CCCC1CCN(C(=O)CCN(CCCCCCCCC)CCN(CCCCCCCCC)CCCCCCCCC)CC1 [Compound 85, 3-((2-(Dinonylamino)ethyl)(nonyl)amino)-1-(4-(3-(dinonylamino)propyl)piperidin-1-yl)propan-1-one] | 6.74 | 52.40 | 53.65 |  |
| CCCCCCCCCN(CCCCCCCCC)CCN(CCCCCCCCC)CC(=O)N1CCN(C(=O)CN(CCCCCCCCC)CCCCC(=O)OCCCC)CC1 [Compound 55, Butyl 5-((2-(4-(N-(2-(dinonylamino)ethyl)-N-nonylglycyl)piperazin-1-yl)-2-oxoethyl)(nonyl)amino)pentanoate] | 6.96 |  |  |  |
| CCCCCCCCCN(CCCCCCCCC)CCN(CCCCCCCCC)CC(=O)N1CCC(CN(CCCCCCCCC)CCCC(=O)OCCCCC)C1 (stereo not drawn) [Compound 82, Pentyl 4-(((1-(N-(2-(dinonylamino)ethyl)-N-nonylglycyl)pyrrolidin-3-yl)methyl)(nonyl)amino)butanoate] | 7.05 | 37.85 | 38.66 |  |
| CCCCCCCC/C=C\CCCCCCCCN(CCCCCCCC/C=C\CCCCCCCC)CCN(CCCCCCCC/C=C\CCCCCCCC)CCN1CCNCC1 [Compound 40, N^1,N^1,N^2-Tri((Z)-octadec-9-en-1-yl)-N^2-(2-(piperazin-1-yl)ethyl)ethane-1,2-diamine] |  |  |  | encapsulation efficiency ranking amongst the compositions of Tables 1 and 1a [3]: highest |
| CCCCC/C=C\CCCCCN(CCCCCCCCCCCC)CCN1CCN(CCN(CCCCCCCCCCCC)CCN(CCCCCCCCCCCC)CCCCCCCCCCCC)CC1 [Compound 24, (Z)—N^1-(2-(4-(2-(Dodec-6-en-1-yl(dodecyl)amino)ethyl)piperazin-1-yl)ethyl)-N^1,N^2,N^2-tridodecylethane-1,2-diamine] |  |  |  | encapsulation efficiency ranking amongst the compositions of Tables 1 and 1a [3]: lowest |
| CCCCCCCCCN(CCCCCCCCC)CCN(CCCCCCCCC)CCN1CCNCC1 [Compound 36, N^1,N^1,N^2-Trinonyl-N^2-(2-(piperazin-1-yl)ethyl)ethane-1,2-diamine] |  |  |  | encapsulation efficiency ranking amongst the compositions of Tables 1 and 1a [3]: highest |
| CCCCCCCCCN(CCCCCCCCC)CCN(CCCCCCCCC)CC(=O)N1CCC(CN(CCCCCCCCC)CCCCCCCCC)C1 (stereo not drawn) [Compound 70, 2-((2-(Dinonylamino)ethyl)(nonyl)amino)-1-(3-((dinonylamino)methyl)pyrrolidin-1-yl)ethan-1-one] | 6.75 | 56.30 | 57.20 |  |
| CCCCCCCCCN(CCCCCCC(=O)OCC)CCC1CCN(C(=O)CN(CCCCCCCCC)CCN(CCCCCCCCC)CCCCCCCCC)CC1 [Compound 58, Ethyl 7-((2-(1-(N-(2-(dinonylamino)ethyl)-N-nonylglycyl)piperidin-4-yl)ethyl)(nonyl)amino)heptanoate] | 6.7 |  |  |  |
| CCCCC/C=C\C/C=C\CCCCCCCCN(CCCCCCCC/C=C\C/C=C\CCCCC)CCN(CCCCCCCC/C=C\C/C=C\CCCCC)CCN1CCN(CCN(CCCCCCCCCCCC)CCCCCCCCCCCC)CC1 [Compound 34, N^1-(2-(4-(2-(Didodecylamino)ethyl)piperazin-1-yl)ethyl)-N^1,N^2,N^2-tri((9Z,12Z)-octadeca-9,12-dien-1-yl)ethane-1,2-diamine] |  |  |  | particle size ranking amongst the compositions of Tables 1 and 1a [4]: smallest particles |
| CCCCCCCCCN(CCCCCCCCC)CCN(CCCCCCCCC)CC(=O)N1CCN(C(=O)CN(CCCC(=O)OCCCCC)CCCC(=O)OCCCCC)CC1 [Compound 72, Dipentyl 4,4′-((2-(4-(N-(2-(dinonylamino)ethyl)-N-nonylglycyl)piperazin-1-yl)-2-oxoethyl)azanediyl)dibutyrate] | 7.19 |  |  |  |
| CCCCCCCCCN(CCCCCC(=O)OCCC)CCC1CCN(C(=O)CN(CCCCCCCCC)CCN(CCCCCCCCC)CCCCCCCCC)CC1 [Compound 59, Propyl 6-((2-(1-(N-(2-(dinonylamino)ethyl)-N-nonylglycyl)piperidin-4-yl)ethyl)(nonyl)amino)hexanoate] | 6.68 |  |  |  |
| CCCCCCCCCCCCN(CCCCCCCCCCCC)CCN1CCN(CCN(CCCCCCCCCCCC)C(=O)CN(CCCCCCCCCCCC)CCCCCCCCCCCC)CC1 [Compound 1, 2-(Didodecylamino)-N-(2-(4-(2-(didodecylamino)ethyl)piperazin-1-yl)ethyl)-N-dodecylacetamide] |  |  |  | particle size ranking amongst the compositions of Tables 1 and 1a [4]: largest particles; encapsulation efficiency ranking amongst the compositions of Tables 1 and 1a [3]: lowest |
